Laboratory results reported in US12692274B2, “Tetrahydroisoquinoline derivatives for the treatment of red blood disorders and inflammatory diseases” (Sanofi, priority 2020, dated 2026).
“And” between values parts separate entries of the source, which are not always exact repeats. Equal entries are not always repeated.

Legend:
[1] = system: NQO1 activation in BEAS-2B cells; assay: BEAS-2B cellular MTT assay of NQO1 activation, 0% HSA; assay type: cell-based
Outline: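 For the 0% HSA condition, cells were seeded into collagen plates in HSA-free medium. Culture was BEAS-2B in BEBM plus BEGM SingleQuots lacking GA-1000, held under 70% confluence, at a seeding density reaching 95-100% confluence by 48 h.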

[2] = system: NQO1 activation in BEAS-2B cells; assay: BEAS-2B cellular MTT assay of NQO1 activation, 0.3% HSA; assay type: cell-based
Outline: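 MTT read-out in BEAS-2B cells grown in BEBM with SingleQuots, no GA-1000, kept below 70% confluence; plates coated with collagen, with 0.3% or 0% HSA medium, seeded to 95-100% confluency at 48 h, 37 °C, 5% CO2.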

[3] = target: HIS-Keap1 full length / Biotin-Nrf2 (16-mer) (Homo sapiens, UniProt Q14145); assay: biochemical
[4] = Homo sapiens, serum free, read-out: BEAS EC50 (nM) serum free
[5] = Homo sapiens, BEAS+, read-out: BEAS+ EC50
[6] = serum free, read-out: BEAS EC50 (nM) serum free
[7] = Homo sapiens, Serum Free W, read-out: BEAS EC50 (nM) Serum Free W
[8] = Homo sapiens, BEAS+ W, read-out: BEAS+ W EC50
[9] = Serum Free W, read-out: BEAS EC50 (nM) Serum Free W
[10] = BEAS+ W, read-out: BEAS+ W EC50

HIS-Keap1 full length / Biotin-Nrf2 (16-mer), sequence (Q14145 whole entry): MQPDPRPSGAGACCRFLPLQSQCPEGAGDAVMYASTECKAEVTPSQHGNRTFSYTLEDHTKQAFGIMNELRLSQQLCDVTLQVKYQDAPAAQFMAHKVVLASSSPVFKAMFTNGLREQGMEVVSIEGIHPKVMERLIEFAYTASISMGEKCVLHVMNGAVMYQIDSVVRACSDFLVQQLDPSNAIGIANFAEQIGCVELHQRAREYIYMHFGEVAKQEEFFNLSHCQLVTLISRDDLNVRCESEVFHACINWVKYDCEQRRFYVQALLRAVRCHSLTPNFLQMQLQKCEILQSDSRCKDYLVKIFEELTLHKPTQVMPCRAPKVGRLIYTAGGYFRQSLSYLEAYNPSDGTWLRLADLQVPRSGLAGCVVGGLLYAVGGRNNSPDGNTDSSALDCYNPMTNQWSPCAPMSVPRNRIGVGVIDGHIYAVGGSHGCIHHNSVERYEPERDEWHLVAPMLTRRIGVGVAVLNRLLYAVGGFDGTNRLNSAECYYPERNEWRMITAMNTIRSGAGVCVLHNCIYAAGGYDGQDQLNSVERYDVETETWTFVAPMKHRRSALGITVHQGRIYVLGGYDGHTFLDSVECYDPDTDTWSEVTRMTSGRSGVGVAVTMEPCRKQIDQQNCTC

| SMILES | EC50 [1, 4] [nM] | EC50 [2, 5] [nM] | IC50 [3] | EC50 [1, 6] [nM] | EC50 ([2]; BEAS+, read-out: BEAS+ EC50) [nM] | EC50 [1, 7] [nM] | EC50 [2, 8] [nM] | EC50 [1, 9] [nM] | EC50 [2, 10] |
| --- | --- | --- | --- | --- | --- | --- | --- | --- | --- |
| Cc1cc2ccc1C(=O)N1CCc3ccc(cc3C1)C(CC(=O)O)c1ccc3c(nnn3CCCCCO2)c1C (stereo not shown) [Compound 335] | 35 | 36.1 | 2.5 nM and 2.9 nM and 6.4 nM and 1.3 nM | – | – | – | – | – | – |
| Cc1cc2ccc1C(=O)N1CCc3ccc(cc3C1)C(CC(=O)O)c1cnc(cc1C)OCCCCO2 (stereo not shown) [Compound 151] | 216 | 230 | 2.4 nM and 2.7 nM | 170 | 121 | – | – | – | – |
| Cc1c2ccc3c1nnn3CCCCCCOc1cc(F)c(c(F)c1)C(=O)N1CCc3ccc(cc3C1)C2CC(=O)O (stereo not shown) [Compound 315] | 2.2 | 25.9 | 0.7 nM and 0.3 nM | – | – | – | – | – | – |
| Cc1cc2ccc1C(=O)N1CCc3ccc(cc3C1)C(C(C)(C)C(=O)O)c1ccc3c(c1)nnn3CCCCCCO2 (stereo not shown) [Compound 299] | 0.6 | 3.6 | < 0.1 nM | – | – | – | – | – | – |
| Cn1cc2c3ccc(cc31)CCCCOc1ccc(cn1)C(CC(=O)O)c1ccc3c(c1)CN(CC3)C2=O (stereo not shown) [Compound 121] | – | – | > 990 nM | – | – | > 1000 | > 10000 | – | – |
| Cc1c2ccc3c1nnn3CCCCCOc1ccc(cc1)C(=O)N1CCc3ccc(cc3C1)[C@@H]2[C@@H](C)C(=O)O [Compound 118] | – | – | 0.4 nM | – | – | 2.5 | 3.8 | 4.2 | 4.4 nM and 3.6 nM and 6.5 nM |
| Cc1c2ccc3c1nnn3CCCCCn1cc(c3ccccc31)C(=O)N1CCc3ccc(cc3C1)C2CC(=O)O (stereo not shown) [Compound 372] | 994 | 1630 | 0.2 nM | 1020 | 861 | – | – | – | – |
| O=C(O)CC1c2ccc3c(c2)CN(CC3)C(=O)c2ccc(cc2Cl)OCCCCCCn2nnc3cc1ccc32 (stereo not shown) [Compound 305] | 345 | 651 | < 0.1 nM | – | 748 | – | – | – | – |
| C[C@@H](C(=O)O)[C@H]1c2ccc(nc2)OCC/C=C/Cc2ccc(cc2)C(=O)N2CCc3ccc1cc3C2 [Compound 66] | – | – | 31.9 nM and 29.5 nM | – | – | 20.6 | 39.3 | 27.6 | 55.6 nM |
| Cc1cc2ccc1OCCCCCn1nnc3c(C)c(ccc31)C(CC(=O)O)c1ccc3c(c1)CN(CC3)C2=O (stereo not shown) [Compound 261] | 89.8 | 198 | 3 nM | 93 | 113 | – | – | – | – |
| O=C(O)C[C@H]1c2cnc(nc2)OCC/C=C/Cc2c(F)c(F)c(c(F)c2F)C(=O)N2CCc3ccc1cc3C2 [Compound 35] | – | – | 840 nM and 662 nM | – | – | > 1000 | > 10000 | – | – |
| O=C(O)CC1c2ccc(cc2)OCCCCCc2ccc(cc2)C(=O)N2CCc3ccc1cc3C2 (stereo not shown) [Compound 396] | 80.5 | 204 | 94.7 nM and 138 nM | 78.2 | 176 | – | – | – | – |
| Cc1c2cnc3c1nnn3CCCCCCOc1cc(F)c(c(F)c1)C(=O)N1CCc3ccc(cc3C1)[C@@H]2CC(=O)O [Compound 207] | – | – | 1.4 nM | – | – | 23.7 | 65.4 | 32.1 | 57.6 nM |
| COc1cc2ccc1CCCCCn1nnc3c(C)c(cnc31)[C@@H](CC(=O)O)c1ccc3c(c1)CN(CC3)C2=O [Compound 86] | – | – | 0.9 nM and 0.8 nM | – | – | 18 | 20.4 | 19.7 | 25.7 nM |
| Cc1cc2cc(C)c1C(=O)N1CCc3ccc(cc3C1)C(CC(=O)O)c1ccc3c(c1)nnn3CCCCCCO2 (stereo not shown) [Compound 293] | 141 | 208 | < 0.1 nM | – | – | – | – | – | – |
| O=C(O)CC1c2ccc(nc2)OCCCCCc2cc(F)c(c(F)c2)C(=O)N2CCc3ccc1cc3C2 (stereo not shown) [Compound 187] | 9.3 | 22 | 5.9 nM and 5.6 nM | 8.9 | 19.1 | – | – | – | – |
| Cc1cc2ncc1[C@@H](CC(=O)O)c1ccc3c(c1)CN(CC3)C(=O)c1ccc(cc1)COCCCO2 [Compound 81] | – | – | 251 nM and 220 nM | – | – | > 1000 | 2160 | 1840 | 1950 nM |
| C[C@H](C(=O)O)[C@@H]1c2ccc3c(c2)CN(CC3)C(=O)c2ccc(cc2)OCCCCCn2nnc3cc1ccc32 [Compound 231] | 153 | 273 | 3.2 nM | 228 | 227 | – | – | – | – |
| Cc1c2cnc3c1nnn3CCCCCCc1cccc(c1)C(=O)N1CCc3ccc(cc3C1)C2CC(=O)O (stereo not shown) [Compound 355] | – | – | 9.1 nM and 9.3 nM | – | – | 810 | 4700 | 1300 | 3860 nM |
| O=C(O)CC1c2ccc3c(c2)CN(CC3)C(=O)c2ccc(cc2F)CCCCCn2nnc3cc1ccc32 (stereo not shown) [Compound 252] | 15.5 | 21.2 | 1.2 nM and 1.3 nM (2×) and 1.4 nM | – | – | – | – | – | – |
